Reference: patent US20260125400A1, “TYK2 DEGRADERS AND USES THEREOF” (Kymera Therapeutics, Inc., priority 2023, published 2026)

Target: T1, TYK2 (Homo sapiens, UniProt P29597)
T1 construct: Degradation of TYK2 in cells was quantitatively measured using Meso Scale Discovery (MSD) technology; endogenous in cells; host or cells: OCI-LY10
Experiment: TYK2 MSD degradation in OCI-LY10 cells
Format: cell-based
Conditions: TYK2 degradation in OCI-LY10 cells, 4 to 24 hours incubation; for DC50: read-out: TYK2 MSD OCI-LY10 Rel-DC50
Procedure, shortened: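 OCI-LY10 cells were treated with 9-dose 1:3 series (top 1 to 10 μM final) for 4 to 24 hours at 37° C. Lysate TYK2 quantified by MSD sandwich immunoassay; DC50 and Dmax from four-parameter inhibitor vs. response fit.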

T1 sequence (P29597 whole entry): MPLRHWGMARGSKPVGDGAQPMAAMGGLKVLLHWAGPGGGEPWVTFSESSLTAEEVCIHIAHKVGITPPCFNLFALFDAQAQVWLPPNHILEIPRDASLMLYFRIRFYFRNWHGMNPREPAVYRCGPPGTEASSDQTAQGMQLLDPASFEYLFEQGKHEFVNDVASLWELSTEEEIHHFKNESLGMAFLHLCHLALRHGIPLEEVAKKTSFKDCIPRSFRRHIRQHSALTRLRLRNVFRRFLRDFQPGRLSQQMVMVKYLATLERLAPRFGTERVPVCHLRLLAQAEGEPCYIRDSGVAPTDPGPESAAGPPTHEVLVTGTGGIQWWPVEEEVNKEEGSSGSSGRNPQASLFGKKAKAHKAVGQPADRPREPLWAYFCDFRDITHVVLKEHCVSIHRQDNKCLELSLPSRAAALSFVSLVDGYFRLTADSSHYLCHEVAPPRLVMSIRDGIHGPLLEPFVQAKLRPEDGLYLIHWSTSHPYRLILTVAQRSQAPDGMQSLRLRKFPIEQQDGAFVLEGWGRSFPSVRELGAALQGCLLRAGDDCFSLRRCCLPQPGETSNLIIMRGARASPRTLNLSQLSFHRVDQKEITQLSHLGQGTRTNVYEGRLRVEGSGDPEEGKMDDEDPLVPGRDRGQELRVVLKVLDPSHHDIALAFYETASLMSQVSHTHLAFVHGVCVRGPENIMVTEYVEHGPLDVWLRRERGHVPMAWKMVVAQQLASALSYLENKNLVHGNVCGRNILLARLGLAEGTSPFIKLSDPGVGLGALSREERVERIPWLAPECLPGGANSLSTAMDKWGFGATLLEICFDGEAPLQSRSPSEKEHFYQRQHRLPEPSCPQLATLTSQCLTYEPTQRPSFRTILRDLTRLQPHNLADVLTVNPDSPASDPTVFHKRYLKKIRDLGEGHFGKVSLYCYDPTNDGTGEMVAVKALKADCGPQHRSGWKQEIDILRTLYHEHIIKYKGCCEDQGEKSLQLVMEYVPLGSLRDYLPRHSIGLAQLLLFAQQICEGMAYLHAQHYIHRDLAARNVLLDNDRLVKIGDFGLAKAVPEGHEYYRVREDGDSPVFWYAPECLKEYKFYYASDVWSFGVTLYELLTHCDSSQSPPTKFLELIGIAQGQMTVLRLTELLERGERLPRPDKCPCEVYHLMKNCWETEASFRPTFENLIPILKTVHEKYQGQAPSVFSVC

SMILES | TYK2 MSD OCI-LY10 Dmax % | DC50 [nM] | Dmax [%]
CNc1cc(N2CCc3c(C#CCN4CCC(N5CC6(CN(C(=O)c7ccc(Cl)c(N8CCC(=O)NC8=O)c7)C6)C5)C(F)(F)C4)cccc32)nn2c(C(=O)N[C@@H]3C[C@@H]3F)cnc12 (stereo partly shown) [I-795] | A (A (>90%)) | < 1 | –
CNc1cc(N2CCc3c(-c4ccc(CN5CC6(CCN(C(=O)c7cc(C)c(C)c(N8CCC(=O)NC8=O)c7)CC6(F)F)C5)cn4)cccc32)nn2c(C(=O)N[C@@H]3C[C@@H]3F)cnc12 [I-796] | A (A (>90%)) | < 1 | –
CNc1cc(N2CCc3c(-c4ccc(CN5CCC6(CCN(C(=O)c7cc(C)c(C)c(N8CCC(=O)NC8=O)c7)CC6)C(F)(F)C5)cn4)cccc32)nn2c(C(=O)N[C@@H]3C[C@@H]3F)cnc12 [I-797] | A (A (>90%)) | < 1 | –
CNc1cc(-c2cn(C3CCN(C(=O)c4ccc(Cl)c(N5CCC(=O)NC5=O)c4)CC3)c3ccccc23)nn2c(C(=O)N[C@@H]3C[C@@H]3F)cnc12 [I-798] | D (D (<50%)) | > 100 | –
CNc1cc(N2CCc3c(-c4ncc(CN5CCC6(CCN(C(=O)c7cc(C)c(Cl)c(N8CCC(=O)NC8=O)c7)CC6)C(F)(F)C5)cn4)cccc32)nn2c(C(=O)N[C@@H]3C[C@@H]3F)cnc12 [I-799] | B (B (90 to >75%)) | < 10 | –
CNc1cc(N2CCc3c(CC4CCC5(CC4)CCN(C4CCN(C(=O)c6ccc(Cl)c(N7CCC(=O)NC7=O)c6)CC4(F)F)CC5)cccc32)nn2c(C(=O)N[C@@H]3C[C@@H]3F)cnc12 (stereo partly shown) [I-800] | D (D (<50%)) | > 100 | –
CNc1cc(N2CCc3c(CN4CCC(N5CCC6(CCN(C(=O)c7ccc(Cl)c(N8CCC(=O)NC8=O)c7)CC6)CC5)CC4)cccc32)nn2c(C(=O)N[C@@H]3C[C@@H]3F)cnc12 [I-802] | B (B (90 to >75%)) | < 10 | –
CNc1cc(N2CCc3c(CN4CCC(N5CCC(N6CCN(C(=O)c7ccc(Cl)c(N8CCC(=O)NC8=O)c7)CC6)C5)C(F)(F)C4)cccc32)nn2c(C(=O)N[C@@H]3C[C@@H]3F)cnc12 (stereo partly shown) [I-803] | A (A (>90%)) | < 1 | –
CNc1cc(N2CCc3c(CN4CCC(N5CCC6(CCN(C(=O)c7ccc(Cl)c(N8CCC(=O)NC8=O)c7)CC6)C5)C(F)(F)C4)cccc32)nn2c(C(=O)N[C@@H]3C[C@@H]3F)cnc12 (stereo partly shown) [I-805] | A (A (>90%)) | < 1 | –
CNc1cc(N2CCc3c2cccc3C23CC(CN4CCC(N5CCC6(CCN(C(=O)c7ccc(Cl)c(N8CCC(=O)NC8=O)c7)CC6)CC5)C(F)(F)C4)(C2)C3)nn2c(C(=O)N[C@@H]3C[C@@H]3F)cnc12 (stereo partly shown) [I-807] | B (B (90 to >75%)) | < 10 | –
CNc1cc(N2CCc3c(CN4CCC(N5CCC6(CCN(C(=O)c7ccc(Cl)c(N8CCC(=O)NC8=O)c7)CC6)CC5)C(F)(F)C4)cc(F)cc32)nn2c(C(=O)N[C@@H]3C[C@@H]3F)cnc12 (stereo partly shown) [I-808] | A (A (>90%)) | < 1 | –
CNc1cc(N2CCc3c(CN4CCC(N5CCC6(CCN(C(=O)c7ccc(Cl)c(N8CCC(=O)NC8=O)c7)C6)C5)C(F)(F)C4)cccc32)nn2c(C(=O)N[C@@H]3C[C@@H]3F)cnc12 (stereo partly shown) [I-811] | A (A (>90%)) | < 1 | –
CNc1cc(N2CCc3c(-c4ncc(CN5CC6(CCN(C(=O)c7cc(C)c(Cl)c(N8CCC(=O)NC8=O)c7)CC6(F)F)C5)cc4F)cccc32)nn2c(C(=O)N[C@@H]3C[C@@H]3F)cnc12 [I-813, 6-(4-(5-((7-(4-chloro-3-(2,4-dioxotetrahydropyrimidin-1(2H)-yl)-5-methylbenzoyl)-5,5-difluoro-2,7-diazaspiro[3.5]nonan-2-yl)methyl)-3-fluoropyridin-2-yl)indolin-1-yl)-N-((1R,2S)-2-fluorocyclopropyl)-8-(methylamino)imidazo[1,2-b]pyridazine-3-carboxamide] | – | < 1 | > 90
CNc1cc(N2CCc3c(-c4ccc(CN5CCC6(CCN(C(=O)c7cc(C)c(Cl)c(N8CCC(=O)NC8=O)c7)CC6)C(F)(F)C5)cn4)cc(F)cc32)nn2c(C(=O)N[C@@H]3C[C@@H]3F)cnc12 [I-815] | B (B (90 to >75%)) | < 10 | –
CNc1cc(N2CCc3c(-c4ccc(CN5CCC6(CCN(C(=O)c7cc(C)c(Cl)c(N8CCC(=O)NC8=O)c7)CC6)C(F)(F)C5)cn4)cccc32)nc2c(C(=O)N[C@@H]3C[C@@H]3F)cnn12 [I-816] | B (B (90 to >75%)) | < 10 | –
CNc1cc(N2CCc3c(-c4ncc(CN5CCC6(CCN(C(=O)c7cc(C)c(Cl)c(N8CCC(=O)NC8=O)c7)CC6)C(F)(F)C5)cc4F)cccc32)nn2c(C(=O)N[C@@H]3C[C@@H]3F)cnc12 [I-818] | B (B (90 to >75%)) | < 10 | –
CNc1cc(N2CCc3c(CC4CCN(C5CCC6(CC5)CCN(C(=O)c5ccc(Cl)c(N7CCC(=O)NC7=O)c5)CC6)CC4)cccc32)nn2c(C(=O)N[C@@H]3C[C@@H]3F)cnc12 [I-820] | B (B (90 to >75%)) | < 10 | –
CNc1cc(N2CCc3c2cccc3C23CC(CN4CCN(C5CCN(C(=O)c6ccc(Cl)c(N7CCC(=O)NC7=O)c6)CC5)CC4)(C2)C3)nn2c(C(=O)N[C@@H]3C[C@@H]3F)cnc12 [I-823] | A (A (>90%)) | < 1 | –

SMILES | TYK2 MSD OCI-LY10 Dmax % | DC50 [nM] | Dmax [%]
CNc1cc(N2CCc3c(-c4ccc(CN5CCC6(CCN(C(=O)c7ccc(Cl)c(N8CCC(=O)NC8=O)c7)CC6)C(F)(F)C5)cn4)cccc32)nn2c(C(=O)NC3CCC3)cnc12 [I-824] | B (B (90 to >75%)) | < 10 | –
CNc1cc(N2CCc3c2cccc3C23CC(CN4CCN(C5CCN(C(=O)c6ccc(Cl)c(N7CCC(=O)NC7=O)c6)CC5(F)F)CC4)(C2)C3)nn2c(C(=O)N[C@@H]3C[C@@H]3F)cnc12 (stereo partly shown) [I-832] | A (A (>90%)) | < 1 | –
CNc1cc(N2CCc3c(CN4CCC5(CC4)CCN(C4CCN(C(=O)c6ccc(Cl)c(N7CCC(=O)NC7=O)c6)CC4)CC5(F)F)cccc32)nn2c(C(=O)N[C@@H]3C[C@@H]3F)cnc12 [I-833] | B (B (90 to >75%)) | < 10 | –
CNc1cc(N2CCc3c(-c4ccc(CN5CCC6(CCN(C(=O)c7cc(Cl)cc(N8CCC(=O)NC8=O)c7)CC6)C(F)(F)C5)cn4)cccc32)nn2c(C(=O)N[C@@H]3C[C@@H]3F)cnc12 [I-835] | B (B (90 to >75%)) | < 10 | –
CNc1cc(N2CCc3c(CN4CCC5(CCN(C6CCN(C(=O)c7ccc(Cl)c(N8CCC(=O)NC8=O)c7)CC6)CC5)C(F)(F)C4)cccc32)nn2c(C(=O)N[C@@H]3C[C@@H]3F)cnc12 [I-836] | B (B (90 to >75%)) | < 10 | –
CNc1cc(N2CCc3c(CN4CCC(N5CC6(CCN(C(=O)c7ccc(Cl)c(N8CCC(=O)NC8=O)c7)CC6)C5)C(F)(F)C4)cccc32)nn2c(C(=O)N[C@@H]3C[C@@H]3F)cnc12 (stereo partly shown) [I-840] | A (A (>90%)) | < 1 | –
CNc1cc(N2CCc3c(CN4CCC(N5CCC6(CCN(C(=O)c7cc(N8CCC(=O)NC8=O)c(Cl)cc7F)CC6)CC5)C(F)(F)C4)cccc32)nn2c(C(=O)N[C@@H]3C[C@@H]3F)cnc12 (stereo partly shown) [I-841] | A (A (>90%)) | < 1 | –
COC1(c2cc(C)cc(-c3cn(C4CCN(CC5CCN(c6ccc(NC7CCC(=O)NC7=O)c(F)c6)CC5)CC4)c4cnc(NC(C)=O)cc34)n2)CCOC1 (stereo not shown) [I-842] | A (A (>90%)) | < 1 | –
CNc1cc(N2CCc3c(CN4CCC(N5CCC6(CCN(C(=O)c7cc(F)c(C)c(N8CCC(=O)NC8=O)c7)CC6)CC5)C(F)(F)C4)cccc32)nn2c(C(=O)N[C@@H]3C[C@@H]3F)cnc12 (stereo partly shown) [I-843] | A (A (>90%)) | < 1 | –
CNc1cc(N2CCc3c(CN4CCC(N5CCC6(CCN(Cc7ccc(Cl)c(N8CCC(=O)NC8=O)c7)CC6)CC5)C(F)(F)C4)cccc32)nn2c(C(=O)N[C@@H]3C[C@@H]3F)cnc12 (stereo partly shown) [I-844] | B (B (90 to >75%)) | < 10 | –
CNc1cc(N2CCc3c(CN4CCC(N5CCC6(CCN(C(=O)c7cc(N8CCC(=O)NC8=O)c(C)cc7Cl)CC6)CC5)C(F)(F)C4)cccc32)nn2c(C(=O)N[C@@H]3C[C@@H]3F)cnc12 (stereo partly shown) [I-845] | A (A (>90%)) | < 1 | –
CNc1cc(N2CCc3c(C#CCN4CCN(C5CCN(C(=O)c6ccc(Cl)c(N7CCC(=O)NC7=O)c6)CC5(F)F)CC4)cccc32)nn2c(C(=O)NC3CC3F)cnc12 (stereo not shown) [I-846] | A (A (>90%)) | < 1 | –
CNc1cc(N2CCc3c(-c4ccc(CN5CCC6(CC5)CN(C(=O)c5ccc(Cl)c(N7CCC(=O)NC7=O)c5)CC6(F)F)cn4)cccc32)nn2c(C(=O)N[C@@H]3C[C@@H]3F)cnc12 [I-847] | A (A (>90%)) | < 1 | –
COC1(c2cc(-c3ccc(CN4CCC5(CC4)CCN(C(=O)c4ccc(Cl)c(N6CCC(=O)NC6=O)c4)CC5)cn3)cc(-c3cn(C)c4cnc(NC(C)=O)cc34)n2)CCOC1 (stereo not shown) [I-848] | A (A (>90%)) | < 1 | –
CNc1cc(N2CCc3c(-c4ccc(CN5CC(F)(F)C6(CCN(C(=O)c7ccc(Cl)c(N8CCC(=O)NC8=O)c7)CC6)C5)cn4)cccc32)nn2c(C(=O)N[C@@H]3C[C@@H]3F)cnc12 [I-849] | B (B (90 to >75%)) | < 10 | –
COC1(c2cc(-c3ccc(CN4CC5(CCN(C(=O)c6ccc(Cl)c(N7CCC(=O)NC7=O)c6)CC5)C4)cn3)cc(-c3cn(C)c4cnc(NC(C)=O)cc34)n2)CCOC1 (stereo not shown) [I-850] | B (B (90 to >75%)) | < 10 | –
CNc1cc(N2CCc3c(-c4ccc(CN5CCC6(CCN(C(=O)c7ccc(Cl)c(N8CCC(=O)NC8=O)c7)CC6)C(F)(F)C5)cn4)cccc32)nn2c(C(=O)NC34CC(C3)C4)cnc12 [I-851] | C (C (75 to 50%)) | 10 to 100 | –
